Reference: patent US20140234252A1, “Composition and Methods for the Treatment of Degenerative Retinal Conditions” (The Provost, Fellows, Foundation Scholars, and the other …, priority 2011, published 2014)
Residues, ends and D or L forms follow the SMILES beside them. *: point of attachment. Cbz = O=C(OCc1ccccc1)*; CH2F = FC*

Columns and labels:
[1] = tested on: human PBMC; assay: Cytokine ELISA in LPS-primed, C1Q-activated human PBMC with inhibitors; assay type: cell-based; conditions: PBMC primed with LPS overnight, 5 μg/ml C1Q 6 h, inhibitor added 1 h before C1Q
Protocol: (§1) FIG. 3: Complement factor C1Q, a component of Drusen, activates the NLRP3 inflammasome: (a) Production of IL-1β (left panel) and TNFα (right panel) in BMDMs primed with CEP for 3 h and activated for 6 h with C1q at increasing doses. (b) Western blot of caspase-1 cleavage products in THP1 cells primed with LPS and treated with increasing doses of C1Q. (c) Live cell imaging of immortalised BL6 BMDMs stably expressing YFP-ASC. Cells were primed for 3 hrs with either LPS (top panel) or CEP-HSA followed by treatment with 10 μg C1Q (right panel) for a further 2 hrs. Oligomerisation of ASC-YFP was observed by speck formation, original magnification ×60. (d) IL-1β (left panel) and TNF-α (right panel) production in WT and Nlrp3^-/- BMDCs primed with LPS (3 h) and activated with C1Q (16 h) at increasing doses (2.5, 5 and 10 μg C1Q). (e) IL-1β, IL-18 and IL-6 production in human PBMC primed with […] LPS overnight and activated with 5 μg ml C1Q for 6 h, with the addition, 1 h before C1Q treatment of increasing doses (10 fold) of ZVAD (caspase-1 inhibitor). All ELISA data are representative of a minimum of 3 separate experiments carried out in triplicate.
FIG. 13: IL-1β, IL-18 and IL-6 production in human PBMC primed with 100 ng/ml LPS overnight and activated with 5 μg/ml C1Q for 6 h, with the addition, 1 h before C1Q treatment of increasing doses (10 fold) of (a) DPI (ROS inhibitor), (b) Bafilomycin (inhibits lysosomal acidification), (c) CA-074 Me (cathepsin B inhibitor).
(§2) ELISA's were used to quantify cytokines in supernatants from the various experimental groups used throughout this study. IL-1β (RnD Systems), IL-18 (MBL International), IL-6 (RnD Systems), TNF-α (RnD Systems) and VEGF (RnD Systems) were analyzed throughout. All ELISA's were conducted a minimum of 3 times in triplicate. Inhibitors used during this study were added at the following highest concentrations 1 h prior to inflammasome activation: 1 μg/ml of caspase-1 inhibitor VI (Calbiochem), 5 μM cytochalasin D (Sigma Aldrich, Ireland), 10 μM CA-074 Me (cathepsin B inhibitor) (Sigma Aldrich, Ireland), 10 μM DPI (Sigma Aldrich, Ireland).
(§3) ARPE-19 cell line (ATCC CRL 2302) were obtained from LGC promochem, THP1 cells and primary isolated human peripheral blood mononuclear […] (PBMCs) were used for in vitro inflammasome activation assays. Cells were cultured at 37° C., 5% CO2, 95% air in a 1:1 mixture of Dulbecco's modified Eagle's medium (DMEM) and Ham's F12 medium with 1.2 g/L sodium bicarbonate, 2.5 mM L-glutamine, 15 mM HEPES, 0.5 mM sodium pyruvate (Sigma Aldrich) with 10% foetal calf serum (FCS). BMDCs and BMDMs were also isolated from WT, NLRP3-/-, TLR-2-/-, C3H/HeN and C3H/HeJ mice on a congenic C57/B16 background. BMDCs and BMDMs were stained with anti-CD11c-APC and anti-CD11b-PeCy7. Cells were gated on live single cells and expression of CD11c and CD11b was assesed by flow cytometry (FIG. 19). Mouse bEnd.3 microvascular endothelial cells were grown on fibronectin (Sigma Aldrich Ireland) coated tissue culture flasks in DMEM containing Glutamax and 10% FCS.

[2] = Zeta potential measurement of C1Q in solution; assay type: physicochemical
[3] = tested on: BMDMs; assay: Cytokine ELISA in BMDMs activated with C1Q; assay type: cell-based, mouse
Protocol: as §1, §2
(§4) ARPE-19 cell line (ATCC CRL 2302) were obtained from LGC promochem, THP1 cells and primary isolated human peripheral blood mononuclear […] (PBMCs) were used for in vitro inflammasome activation assays. […]

[4] = tested on: BMDMs expressing YFP-ASC; assay: ASC speck formation in immortalised BMDMs expressing YFP-ASC; assay type: cell-based, mouse; conditions: primed BMDMs, live cell imaging
Excerpt: Live cell imaging of speck formation was undertaken using a temperature and CO2 regulated confocal laser scanning microscopy (Olympus FluoView TM FV1000).

[5] = tested on: BMDCs; assay: Cytokine ELISA in WT and Nlrp3-/- BMDCs primed with LPS and activated with C1Q; assay type: cell-based, mouse; conditions: for production of IL-1β: LPS 3 h, C1Q 16 h
Protocol: as §1, §2, §4

[6] = tested on: THP1 cells; assay: Western blot of caspase-1 cleavage products in THP1 cells; assay type: cell-based, human; conditions: THP1 cell lysates
Protocol: Generally, antibodies specific for caspase-1 (Santa-Cruz Biotech), beta-actin (Abcam), NLRP3 (Sigma Aldrich, Ireland), TLR-4 (Santa-Cruz Biotech) were incubated on membranes overnight at 4° C. Membranes were washed with TBS, and incubated with a secondary antibody against rabbit (IgG) with Horse-Radish-Peroxidase (HRP) conjugates (1:2500) (Sigma-Aldrich, Ireland), or mouse (IgG) (1:1000), (Sigma-Aldrich, Ireland), for 3 hours at room temperature. Immune complexes were detected using enhanced chemiluminescence (ECL). All Western blots were repeated a minimum of 3 times.
as §3, with “Mouse bEnd.3 microvascular endothelial cells were grown on fibronectin (Sigma Aldrich Ireland) coated tissue culture flasks in DMEM containing Glutamax and 10% FCS.” left out

[7] = tested on: intraocular neovascularization in C57BL/6 mice; conditions: administered to C57BL/6 mice during development of oxygen induced retinopathy; cited from earlier work
[8] = tested on: ARPE-19 cells; assay: VEGF ELISA in ARPE-19 cells treated with recombinant IL-18; assay type: cell-based; conditions: increasing doses of IL-18, 24 hrs, growth medium
Protocol: as §2
(§5) ARPE-19 cell line (ATCC CRL 2302) were obtained from LGC promochem, THP1 cells and primary isolated human peripheral blood mononuclear […] (PBMCs) were used for in vitro inflammasome activation assays. Cells were cultured at 37° C., 5% CO2, 95% air in a 1:1 mixture of Dulbecco's modified Eagle's medium (DMEM) and Ham's F12 medium with 1.2 g/L sodium bicarbonate, 2.5 mM L-glutamine, 15 mM HEPES, 0.5 mM sodium pyruvate (Sigma Aldrich) with 10% foetal calf serum (FCS). […]
(§6) We reasoned that IL-18 might confer its protection via the regulation of VEGF synthesis. To test this hypothesis we treated ARPE19 cells and a mouse brain microvascular endothelial cell line (bEnd.3) with recombinant IL-18 and subsequently analysed VEGF levels in the growth medium. […]

[9] = tested on: mouse brain microvascular endothelial cell line (bEnd.3); assay: VEGF ELISA in bEnd.3 cells treated with recombinant IL-18; assay type: cell-based; conditions: increasing doses of IL-18, 24 hrs, growth medium
Protocol: as §2, §5, §6

[10] = tested on: wet AMD; conditions: human, in vivo; cited from earlier work

With `CCCNC(=O)[C@H]1O[C@@H]1C(=O)N[C@H](C(=O)N1CCC[C@H]1C(=O)OC)[C@@H](C)CC` [CA-074 Me] the “C1Q induced IL-1β production” value [1] was “restricted”, the “C1Q induced IL-18 production” value [1] was “restricted” and the IL-6 production [1] was “no effect”.

In the case of “C1Q: complement factor, primary initiating component of the classical complement pathway; drusen component, isolated from human blood”, the “zeta average (zeta potential)” value [2] is reported as 11.8 mV, the “production of IL-1β” value ([3]; BMDMs primed with CEP-HSA 3 h, C1Q 6 h) is reported as “produced significant levels of IL-1β” and the “secretion of TNFα” value ([3]; BMDMs primed with CEP-HSA, C1Q added) is reported as “remained unchanged”. The “production of IL-1β” value ([3]; C1Q alone, unprimed BMDMs) was “did not cause the production of IL-1β”, the “ASC oligomerisation (YFP-ASC speck formation)” value [4] was “could cause ASC oligomerisation” and the “production of IL-1β” value ([5]; Nlrp3-/- cells) was “failed to produce IL-1β”. The “production of IL-1β” value ([5]; WT BMDCs) was “did produce a significant level of IL-1β”, the “levels of TNFα” value ([5]; WT and Nlrp3-/- BMDCs, LPS primed, C1Q) was “remained unchanged” and the “cleaved caspase-1 p10” value [6] was “observed cleaved caspase-1 p10”.

For “IL-18: 18KDa mature IL-18; protein sequence NCBI Accession no. NP—001553.1; also covers recombinant IL-18”, the neovascularization [7] is listed as “no inhibition of neovascularization”, the “levels of VEGF secreted” value [8] is listed as “significantly decreased” and the “levels of VEGF secreted” value [9] is listed as “significantly decreased”.

For “Infliximab: marketed drug tested in clinical trials in wet AMD”, the “subjects in whom symptoms were greatly exacerbated” value [10] is listed as “more than 50%”.

In the case of `CO/C1=C\C(C)=C\[C@@H](C)[C@@H](O)[C@@H](C)C/C(C)=C/C=C/[C@H](OC)[C@@H]([C@@H](C)[C@@H](O)[C@H](C)[C@@]2(O)C[C@@H](O)[C@H](C)[C@@H](C(C)C)O2)OC1=O` [bafilomycin A], the “C1Q induced IL-1β production” value [1] is reported as “restricted”, the “C1Q induced IL-18 production” value [1] is reported as “restricted” and the IL-6 production [1] is reported as “no effect”.

For `c1ccc2c(c1)[I+]c1ccccc1-2` [DPI], the “C1Q induced IL-1β production” value [1] was “no effect”.

In the case of `CC(NC(=O)C(NC(=O)OCc1ccccc1)C(C)C)C(=O)NC(CC(=O)O)C(=O)CF` (stereo not drawn) [ZVAD] (Cbz-Val-Ala-Asp-CH2F; configuration not given here), the “C1Q induced IL-1β production” value [1] is reported as “decreased” and the “C1Q induced IL-18 production” value [1] is reported as “decreased”.
